Laboratory results from publication PMC11407620, “Repurposing auranofin and meclofenamic acid as energy-metabolism inhibitors and anti-cancer drugs” (PLOS ONE, 2024).
Read-outs that look alike come from different tables or passages of the source. Each block holds one compound with its values, some of them ahead of it.

Tests used:
Prostate PC3 cells = assay: Cell proliferation, 24 h drug exposure; format: cell-based, human; conditions: for IC50: Prostate PC3, 24 h, read-out: IC50 for proliferation cell rate; for TI ratio (3T3/ cancer cells): IC50 3T3 / IC50 PC3; for TI ratio (H9C2/cancer cells): IC50 H9C2 / IC50 PC3
Experimental: (§1) All metastatic (breast MDA-MB231, MDA-MB468, cervix HeLa, prostate PC3, colorectal HCT116, COLO205, glioblastoma U373), low-metastatic (breast MCF-7) cancer and non-cancer (fibroblast 3T3, cardiomyocytes H9C2) cell lines (American Type Culture Collection, Rockville, MD, USA) used in this study were cultured in Petri dishes in 20 mL of Dulbecco’s Modified Eagle’s Medium (DMEM, Sigma, MO, USA) supplemented with 10% fetal bovine serum (Biowest, Mexico) and 10,000 U penicillin/streptomycin (Sigma-Aldrich, MO, USA). […] For growth and maintenance, cells were incubated in 5% CO2/95% air at 37°C and kept until 80–90% of confluence was reached. Then, cells were harvested, washed by centrifugation and resuspended in Krebs-Ringer buffer (KR, 125 mM NaCl, 5 mM KCl, 25 mM Hepes, 1 mM MgCl2, 1 mM KH2PO4, 1.4 mM CaCl2, pH 7.4) for further use. For experimentation, cancer cells (3–5 x 10^6 cells) were cultured in DMEM (with 25 mM glucose) for 24 h in the absence of drugs. Afterwards, old-medium was replaced with fresh DMEM medium (with 25 mM glucose) in the absence (control, non-treated cells) or in the presence of logarithmic concentrations of Aur and MA for 24 h more, under the same culture conditions described above. Viability of cultured cells was determined by the trypan blue exclusion assay. The protein concentration was determined by the Lowry method.
(§2) For cell proliferation in the presence of drugs, cancer cells (20 x 10^3 cells/well) were grown in 96-well plates containing DMEM (Sigma-Aldrich) plus 10% bovine fetal serum for 24 h. Afterwards, Aur or MA (0.01, 0.1, 10 and 100 μM) were added to the cell cultures and incubated for additional 24 h. The effect of these drugs on cell proliferation was determined in 96-well plates by the MTT (3-[4,5-dimethyl-thiazol-2-yl]-2,5-diphenyltetrazolium bromide) assay. The viability of cancer cells was > 95% after treatment with drugs.

Colorectal HCT116 cells = assay: Cell proliferation, 24 h drug exposure; format: cell-based, human; conditions: for IC50: Colorectal HCT116, 24 h, read-out: IC50 for proliferation cell rate; for TI ratio (3T3/ cancer cells): IC50 3T3 / IC50 HCT-116; for TI ratio (H9C2/cancer cells): IC50 H9C2 / IC50 HCT-116
Experimental: as §1, §2

Breast MCF-7 cells = assay: Cell proliferation, 24 h drug exposure; format: cell-based, human; conditions: for IC50: Breast MCF-7 (low metastatic), 24 h, read-out: IC50 for proliferation cell rate; for TI ratio (3T3/ cancer cells): IC50 3T3 / IC50 MCF-7; for TI ratio (H9C2/cancer cells): IC50 H9C2 / IC50 MCF-7
Experimental: as §1, §2

Breast MDA-MB-231 cells = assay: Cell proliferation, 24 h drug exposure; format: cell-based, human; conditions: for IC50: Breast MDA-MB-231, 24 h, read-out: IC50 for proliferation cell rate; for TI ratio (3T3/ cancer cells): IC50 3T3 / IC50 MDA-MB-231; for TI ratio (H9C2/cancer cells): IC50 H9C2 / IC50 MDA-MB-231
Experimental: as §1, §2

Rat Liver Mitochondria = assay: Oxygen consumption of isolated mitochondria; format: biochemical; conditions: for Net State 3 oxygen consumption rate / Pseudo State 4 oxygen consumption rate / RC / State 3 oxygen consumption rate / State 4 oxygen consumption rate / RC, respiratory control: Rat Liver Mitochondria
Experimental: Rat liver (RLM) and heart (RHM) mitochondria were isolated as described previously by differential centrifugation.
Respiration of AS-30D, liver and heart mitochondria (1 mg protein/mL) was assayed oxygraphically with a Clark-type O2 electrode in KME (120 mM KCl, 20 mM Mops, 1 mM EGTA) buffer pH 7.2 plus 2 mM KH2PO4, and different oxidizable substrates (as indicated in Results). For state 3 respiration, 600 nmol ADP were added. Mitochondria were incubated at 37°C with Aur and MA for 30–60 s before substrates were added. At the end of each respiratory measurement, dithionite was added to get the chemical zero oxygen signal.
Isolated mitochondria (1mg protein/mL) were incubated in KME buffer (120 mM KCl, 20 mM MOPS, 1 mM EGTA) pH 7.20 plus 2 mM KH2PO4 and the indicated oxidizable substrates. For state 3 (ADP-stimulated) respiration, 300-600 nmol ADP were added. RC, respiratory control; n=3. To get the maximal reduction of molecular oxygen (zero oxygen concentration), sodium dithionite (Na2O4S2) was added at the end of each measurement.

MDA-MB-231 cells = assay: OxPhos flux (oligomycin-sensitive respiration) in intact cells; format: cell-based, human; conditions: 24 h
Experimental: (§3) For oxidative phosphorylation (OxPhos) flux, cells (2–5 mg protein/mL) were incubated at 37°C in air saturated KR medium plus 5 mM glucose. To distinguish the oxygen consumption associated to OxPhos, the cells were incubated with 5 μM oligomycin (Sigma-Aldrich, MO, USA), a potent, specific, and permeable inhibitor of the mitochondrial ATP synthase. The net OxPhos rate was determined by using a Clark type electrode, as previously described and by using a high-resolution respirometer (Oroboros Instruments, Innsbruck, Austria) at 37°C. The contribution of OxPhos and glycolysis to the cellular ATP supply was determined, respectively, from the net OxPhos rate (oligomycin-sensitive respiration) multiplied by the ATP/O or P»/O2 ratio that corresponds to 2.5 or 5, and from the rate of lactate production, assuming a stoichiometry of 1 mol of ATP produced per 1 mol of lactate produced.

HeLa cells = assay: as above; format: cell-based, human; conditions: 24 h
Experimental: as §3

[1] = 5 mM Glutamate/5 mM Malate, 10 μM MA
[2] = 5 mM Glutamate/5 mM Malate, 50 μM MA
[3] = 5 mM Glutamate/5 mM Malate, 10 μM Aur
[4] = 5 mM Glutamate/5 mM Malate, 25 μM Aur
[5] = 5 mM Glutamate/5 mM Malate, 50 μM Aur
[6] = 5 mM Glutamate/5 mM Malate, 100 μM Aur
[7] = Succinate 0.5 mM + Rotenone 2 µM, 10 µM Aur
[8] = Succinate 0.5 mM + Rotenone 2 µM, 25 µM Aur
[9] = Succinate 0.5 mM + Rotenone 2 µM, 50 µM Aur
[10] = Succinate 0.5 mM + Rotenone 2 µM, 100 µM Aur

- IC50 (Prostate PC3 cells; Homo sapiens, PC-3): 6 ± 3 µM
- IC50 (Colorectal HCT116 cells; Homo sapiens, HCT-116): > 100000 nM
- IC50 (Breast MCF-7 cells; Homo sapiens, MCF7): > 100 µM
- IC50 (Breast MDA-MB-231 cells; Homo sapiens): 51 ± 5 µM
SMILES: Cc1ccc(Cl)c(Nc2ccccc2C(=O)O)c1Cl [MA, Meclofenamic acid]
- TI ratio (3T3/ cancer cells) (Prostate PC3 cells): 17
- TI ratio (H9C2/cancer cells) (Prostate PC3 cells): 17
- TI ratio (3T3/ cancer cells) (Colorectal HCT116 cells): 1
- TI ratio (H9C2/cancer cells) (Colorectal HCT116 cells): 1
- TI ratio (3T3/ cancer cells) (Breast MCF-7 cells): 1
- TI ratio (H9C2/cancer cells) (Breast MCF-7 cells): 1
- TI ratio (3T3/ cancer cells) (Breast MDA-MB-231 cells): 2
- TI ratio (H9C2/cancer cells) (Breast MDA-MB-231 cells): 2
- Net State 3 oxygen consumption rate (Rat Liver Mitochondria; [1]): 81 (1)
- Pseudo State 4 oxygen consumption rate (Rat Liver Mitochondria; [1]): 32.5 (1)
- RC (Rat Liver Mitochondria; [1]): 8.6 (1)
- State 3 oxygen consumption rate (Rat Liver Mitochondria; [1]): 113.5 (1)
- State 4 oxygen consumption rate (Rat Liver Mitochondria; [1]): 13.5 (1)
- Net State 3 oxygen consumption rate (Rat Liver Mitochondria; [2]): 61 ± 27
- Pseudo State 4 oxygen consumption rate (Rat Liver Mitochondria; [2]): 42 ± 15 (3)
- RC (Rat Liver Mitochondria; [2]): 2.1 ± 0.2 (3)
- State 3 oxygen consumption rate (Rat Liver Mitochondria; [2]): 102 ± 23 (3)
- State 4 oxygen consumption rate (Rat Liver Mitochondria; [2]): 50 ± 17 (3)
- OxPhos flux (MDA-MB-231 cells; +MA 50 μM): 3.1 ± 2 nmol O2 min^-1 mg protein^-1
- OxPhos flux (HeLa cells; +MA 6 μM): 1.1 ± 0.3 nmol O2 min^-1 mg protein^-1

SMILES: CC(=O)OC[C@H]1O[C@@H]([S-])[C@H](OC(C)=O)[C@@H](OC(C)=O)[C@@H]1OC(C)=O.CCP(CC)CC.[Au+] [Aur, [1-(thio-κS)-β-D-glucopyranose-2,3,4,6-tetraacetyl] (triethylphosphine)-gold]
- TI ratio (3T3/ cancer cells) (Prostate PC3 cells): 6
- TI ratio (H9C2/cancer cells) (Prostate PC3 cells): 12
- IC50 (Prostate PC3 cells): 6.5 ± 3.5 µM
- IC50 (Colorectal HCT116 cells): 3000 ± 1000 nM
- TI ratio (3T3/ cancer cells) (Colorectal HCT116 cells): 14
- TI ratio (H9C2/cancer cells) (Colorectal HCT116 cells): 26
- IC50 (Breast MCF-7 cells): 5 ± 0.6 µM
- TI ratio (3T3/ cancer cells) (Breast MCF-7 cells): 8
- TI ratio (H9C2/cancer cells) (Breast MCF-7 cells): 15
- IC50 (Breast MDA-MB-231 cells): 0.8 ± 0.2 µM
- TI ratio (3T3/ cancer cells) (Breast MDA-MB-231 cells): 52
- TI ratio (H9C2/cancer cells) (Breast MDA-MB-231 cells): 97
- inhibition of state 3 respiration rates (Rat Liver Mitochondria; RLM): 20–54%
- increase of state 4 respiration rates (times) (Rat Liver Mitochondria; RLM, GM): 1.8–1.9 times
- Net State 3 oxygen consumption rate (Rat Liver Mitochondria; [3]): 123.5 ± 59 nmol O2 min^-1 mg protein^-1
- Pseudo State 4 oxygen consumption rate (Rat Liver Mitochondria; [3]): 27.5 ± 3 nmol O2 min^-1 mg protein^-1
- RC, respiratory control (Rat Liver Mitochondria; [3]): 8 ± 1
- State 3 oxygen consumption rate (Rat Liver Mitochondria; [3]): 151 ± 61.5 nmol O2 min^-1 mg protein^-1
- State 4 oxygen consumption rate (Rat Liver Mitochondria; [3]): 18 ± 5 nmol O2 min^-1 mg protein^-1
- Net State 3 oxygen consumption rate (Rat Liver Mitochondria; [4]): 62 nmol O2 min^-1 mg protein^-1
- Pseudo State 4 oxygen consumption rate (Rat Liver Mitochondria; [4]): 27 (2) nmol O2 min^-1 mg protein^-1
- RC, respiratory control (Rat Liver Mitochondria; [4]): 6 (2)
- State 3 oxygen consumption rate (Rat Liver Mitochondria; [4]): 89 (2) nmol O2 min^-1 mg protein^-1
- State 4 oxygen consumption rate (Rat Liver Mitochondria; [4]): 15 (2) nmol O2 min^-1 mg protein^-1
- Net State 3 oxygen consumption rate (Rat Liver Mitochondria; [5]): 48 nmol O2 min^-1 mg protein^-1
- Pseudo State 4 oxygen consumption rate (Rat Liver Mitochondria; [5]): 30.5 (2) nmol O2 min^-1 mg protein^-1
- RC, respiratory control (Rat Liver Mitochondria; [5]): 5.5 (2)
- State 3 oxygen consumption rate (Rat Liver Mitochondria; [5]): 78.5 (2) nmol O2 min^-1 mg protein^-1
- State 4 oxygen consumption rate (Rat Liver Mitochondria; [5]): 16 (2) nmol O2 min^-1 mg protein^-1
- Net State 3 oxygen consumption rate (Rat Liver Mitochondria; [6]): 25 nmol O2 min^-1 mg protein^-1
- Pseudo State 4 oxygen consumption rate (Rat Liver Mitochondria; [6]): 48 (2) nmol O2 min^-1 mg protein^-1
- RC, respiratory control (Rat Liver Mitochondria; [6]): 3 (2)
- State 3 oxygen consumption rate (Rat Liver Mitochondria; [6]): 73 (2) nmol O2 min^-1 mg protein^-1
- State 4 oxygen consumption rate (Rat Liver Mitochondria; [6]): 26 (2) nmol O2 min^-1 mg protein^-1
- Net State 3 oxygen consumption rate (Rat Liver Mitochondria; [7]): 116 (2)
- Pseudo State 4 oxygen consumption rate (Rat Liver Mitochondria; [7]): 33 (2)
- RC (Rat Liver Mitochondria; [7]): 5.4 (2)
- State 3 oxygen consumption rate (Rat Liver Mitochondria; [7]): 150 (2)
- State 4 oxygen consumption rate (Rat Liver Mitochondria; [7]): 68 (2)
- Net State 3 oxygen consumption rate (Rat Liver Mitochondria; [8]): 88 (2)
- Pseudo State 4 oxygen consumption rate (Rat Liver Mitochondria; [8]): 73 (2)
- RC (Rat Liver Mitochondria; [8]): 4.8 (2)
- State 3 oxygen consumption rate (Rat Liver Mitochondria; [8]): 161 (2)
- State 4 oxygen consumption rate (Rat Liver Mitochondria; [8]): 39.5 (2)
- Net State 3 oxygen consumption rate (Rat Liver Mitochondria; [9]): 36.5 (2)
- Pseudo State 4 oxygen consumption rate (Rat Liver Mitochondria; [9]): 63.5 (2)
- RC (Rat Liver Mitochondria; [9]): 2.3 (2)
- State 3 oxygen consumption rate (Rat Liver Mitochondria; [9]): 95.5 (2)
- State 4 oxygen consumption rate (Rat Liver Mitochondria; [9]): 40.5 (2)
- Net State 3 oxygen consumption rate (Rat Liver Mitochondria; [10]): 20 (2)
- Pseudo State 4 oxygen consumption rate (Rat Liver Mitochondria; [10]): 59 (2)
- RC (Rat Liver Mitochondria; [10]): 2.5 (2)
- State 3 oxygen consumption rate (Rat Liver Mitochondria; [10]): 64 (2)
- State 4 oxygen consumption rate (Rat Liver Mitochondria; [10]): 56 (2)
- OxPhos flux (MDA-MB-231 cells; +Aur 0.8 μM): 2.5 ± 0.5 nmol O2 min^-1 mg protein^-1
- OxPhos flux (HeLa cells; +Aur 1.7 μM): 2.6 ± 0.5 nmol O2 min^-1 mg protein^-1
